Tests used:
Meningioma (IOMM-Lee) = assay: cytotoxicity in Brain Tumor Cell lines by MTT assay; settings: 0.1 Mm-100 μM, 72 h
[1] = tested on: PC-3 (Human Prostate Cancer); assay: Calcein AM cytotoxicity assay; settings: SEQ ID 2 80 μg/mL, doxorubicin 100 μM; 48h
Protocol: (§1) All the cancer cell lines were procured from National Centre for Cell Science, Pune (India). The cell lines were maintained under conditions as described in Table 21 below. The cell lines were sub-cultured by trypsinization followed by splitting the cell suspension into fresh flasks and supplementing with fresh culture medium.
(§2) All the cell lines were grown in specified media at 37° C. with 95% Humidity and […].
(§3) The cells were trypsinized, counted by Trypan blue method in Neuebauer's Chamber and plated in wells of flat bottom 96-well plate (dark walled plate, flat bottom) at the density corresponding to 10×10^3 cells/well/180 μl medium.
(§4) Following overnight incubation, the cells were treated with test item (20 μL) at concentrations ranging from 2.5-80 μg/mL, so that the total volume in each well is 200 μL.
(§5) The cells were incubated with the test items or positive control for a time period of 48h. Following incubation, the cell cytotoxicity was estimated using Calcein AM Cell Viability Assay Kit from R&D systems (Cat No. 4892-010-K).
(§6) Fluorescence was measured at 485 nm (excitation/528 run (emission) spectra using Synergy HT micro plate reader.
(§7) Percentage cytotoxicity wrt untreated cells was calculated using formula:
(§8) Cytotoxicity=[(RFUuntreated−RFUsample)/RFUuntreated]*100
(§9) RFU: relative fluorescence units
(§10) IC50 value was calculated using Graph-Pad Prism version 4.01 software.

[2] = tested on: Human Primary mammary epithelial (HMEC) cells; assay: Calcein AM cytotoxicity assay; settings: SEQ ID 2 80 μg/mL, doxorubicin 100 μM; 48h
Protocol: as §1, §2, §3, §4, §5, §6, §7, §8, §9, §10

[3] = tested on: A549 (Human lung carcinoma); assay: Calcein AM cytotoxicity assay; settings: SEQ ID 2 80 μg/mL, doxorubicin 100 μM; 48h
Protocol: as §1, §2, §3, §4, §5, §6, §7, §8, §9, §10

[4] = tested on: SKOV-3 (Human Ovary adenocarcinoma); assay: Calcein AM cytotoxicity assay; settings: SEQ ID 2 80 μg/mL, doxorubicin 100 μM; 48h
Protocol: as §1, §2, §3, §4, §5, §6, §7, §8, §9, §10

[5] = tested on: PA-1 (Human Ovary carcinoma); assay: Calcein AM cytotoxicity assay; settings: SEQ ID 2 80 μg/mL, doxorubicin 100 μM; 48h
Protocol: as §1, §2, §3, §4, §5, §6, §7, §8, §9, §10

[6] = tested on: SW620 (Human Colorectal adenocarcinoma); assay: Calcein AM cytotoxicity assay; settings: SEQ ID 2 80 μg/mL, doxorubicin 100 μM; 48h
Protocol: as §1, §2, §3, §4, §5, §6, §7, §8, §9, §10

[7] = tested on: SK-Mel-28 (Human melanoma); assay: Calcein AM cytotoxicity assay; settings: SEQ ID 2 80 μg/mL, doxorubicin 100 μM; 48h
Protocol: as §1, §2, §3, §4, §5, §6, §7, §8, §9, §10

[8] = tested on: PBMCs (Peripheral blood mononuclear cells); assay: Calcein AM cytotoxicity assay; settings: SEQ ID 2 80 μg/mL, doxorubicin 100 μM; 48h
Protocol: as §1, §2, §3, §4, §5, §6, §7, §8, §9, §10

[9] = tested on: THP-1 (Human acute monocytic leukemia); assay: Calcein AM cytotoxicity assay; settings: SEQ ID 2 80 μg/mL, doxorubicin 100 μM; 48h
Protocol: as §1, §2, §3, §4, §5, §6, §7, §8, §9, §10

[10] = tested on: SiHa (Human cervix squamous cell carcinoma); assay: Calcein AM cytotoxicity assay; settings: SEQ ID 2 80 μg/mL, doxorubicin 100 μM; 48h
Protocol: as §1, §2, §3, §4, §5, §6, §7, §8, §9, §10

[11] = tested on: MCF-7 (Human breast adenocarcinoma); assay: Calcein AM cytotoxicity assay; settings: SEQ ID 2 80 μg/mL, doxorubicin 100 μM; 48h
Protocol: as §1, §2, §3, §4, §5, §6, §7, §8, §9, §10

[12] = tested on: ZR-75-1 (Human ductal carcinoma); assay: Calcein AM cytotoxicity assay; settings: SEQ ID 2 80 μg/mL, doxorubicin 100 μM; 48h
Protocol: as §1, §2, §3, §4, §5, §6, §7, §8, §9, §10

[13] = tested on: KB (Human cervical carcinoma); assay: Calcein AM cytotoxicity assay; settings: SEQ ID 2 80 μg/mL, doxorubicin 100 μM; 48h
Protocol: as §1, §2, §3, §4, §5, §6, §7, §8, §9, §10

[14] = tested on: MCF-10A (Human mammary epithelial cells); assay: Calcein AM cytotoxicity assay; settings: SEQ ID 2 80 μg/mL, doxorubicin 100 μM; 48h
Protocol: as §1, §2, §3, §4, §5, §6, §7, §8, §9, §10

[15] = tested on: AGS (Human stomach adenocarcinoma); assay: Calcein AM cytotoxicity assay; settings: SEQ ID 2 80 μg/mL, doxorubicin 100 μM; 48h
Protocol: as §1, §2, §3, §4, §5, §6, §7, §8, §9, §10

[16] = tested on: HT-29 (Human Colorectal adenocarcinoma); assay: Calcein AM cytotoxicity assay; settings: SEQ ID 2 80 μg/mL, doxorubicin 100 μM; 48h
Protocol: as §1, §2, §3, §4, §5, §6, §7, §8, §9, §10

[17] = tested on: VEGF release in MDA-MB-231 cells; assay: VEGF secretion in cancer cells (Human VEGF ELISA); assay type: cell-based; settings: 24 h
Protocol: (§11) The cell lines were maintained in DMEM+10% […] (heat inactivated) at 37° C. with 5% CO2, and 95% humidity. Cells were counted and plated in 6-well plates for 24 h at a density of 0.5×10^6 cells/well. The cells were incubated overnight under growth conditions as described above so as to allow cell recovery and exponential growth. Cells were treated with each test item at different concentrations for 24h in serum free media. Doxorubicin was used as positive control. Secreted levels of VEGF were determined in supernatants after 24 hours using Human VEGF ELISA kit (R&D systems) as per manufacturer's protocol. Change in VEGF levels corresponding to each treatment was calculated using the following formula: […]

[18] = tested on: VEGF release in PANC-1 cells; assay: VEGF secretion in cancer cells (Human VEGF ELISA); assay type: cell-based; settings: 24 h
Protocol: as §11

COc1cccc2c1C(=O)c1c(O)c3c(c(O)c1C2=O)C[C@@](O)(C(=O)CO)C[C@@H]3O[C@H]1C[C@H](N)[C@H](O)[C@H](C)O1 [Doxorubicin, reference compound]
% of cytotoxicity (Meningioma (IOMM-Lee)): 46.6%-54.5%
Cytotoxicity at highest concentration tested [1]: 75.3%
Cytotoxicity at highest concentration tested [2]: 87.6%
Cytotoxicity at highest concentration tested [3]: 78.4%
Cytotoxicity at highest concentration tested [4]: 61.74%
Cytotoxicity at highest concentration tested [5]: 82.3%
Cytotoxicity at highest concentration tested [6]: 93.5%
Cytotoxicity at highest concentration tested [7]: 65.9%
Cytotoxicity at highest concentration tested [8]: 64.3%
Cytotoxicity at highest concentration tested [9]: 33.6%
Cytotoxicity at highest concentration tested [10]: 87.2%
Cytotoxicity at highest concentration tested [11]: 60.7%
Cytotoxicity at highest concentration tested [12]: 52.6%
Cytotoxicity at highest concentration tested [13]: 92.0%
Cytotoxicity at highest concentration tested [14]: 93.8%
Cytotoxicity at highest concentration tested [15]: 81.0%
Cytotoxicity at highest concentration tested [16]: 75.0%
Average absorbance at 450 nM ([17]; 10 μM): 0.176
Percentage decrease in VEGF levels ([17]; 10 μM): 89.2%
VEGF level ([17]; 10 μM): 49.9 pg/mL
Average absorbance at 450 nM ([17]; 100 μM): 0.145
Percentage decrease in VEGF levels ([17]; 100 μM): 93.7%
VEGF level ([17]; 100 μM): 29.0 pg/mL
Average absorbance at 450 nM ([18]; 10 μM): 0.506
Percentage decrease in VEGF levels ([18]; 10 μM): 73.6%
VEGF level ([18]; 10 μM): 269.7 pg/mL
Average absorbance at 450 nM ([18]; 100 μM): 0.483
Percentage decrease in VEGF levels ([18]; 100 μM): 75.1%
VEGF level ([18]; 100 μM): 254.6 pg/mL

From patent publication US20230348564A1, “ANTI-CANCER PROTEINS” (UNICHEM LABORATORIES LTD, priority 2020, published 2023)
